In patent US10532040B2, “Methods of treating cancer with herbacetin” (REGENTS OF THE UNIVERSITY OF MINNESOTA, priority 2011, dated 2020):

Biological target: T1, ODC (Homo sapiens, UniProt P11926)
T1 sequence (P11926 1-461): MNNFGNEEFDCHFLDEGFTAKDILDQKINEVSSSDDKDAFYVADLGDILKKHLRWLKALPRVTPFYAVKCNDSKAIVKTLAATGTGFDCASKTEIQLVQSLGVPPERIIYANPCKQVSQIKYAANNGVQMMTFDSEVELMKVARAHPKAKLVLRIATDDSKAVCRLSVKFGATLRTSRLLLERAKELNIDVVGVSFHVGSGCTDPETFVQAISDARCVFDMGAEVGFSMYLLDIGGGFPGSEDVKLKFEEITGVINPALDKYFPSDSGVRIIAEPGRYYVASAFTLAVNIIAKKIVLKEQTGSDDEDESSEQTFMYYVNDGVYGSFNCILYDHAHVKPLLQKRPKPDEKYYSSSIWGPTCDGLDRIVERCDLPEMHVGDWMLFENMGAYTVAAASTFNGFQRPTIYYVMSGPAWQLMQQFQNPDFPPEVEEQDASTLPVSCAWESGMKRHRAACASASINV
Test: ODC enzyme assay with recombinant ODC protein
Format: biochemical
Conditions: in vitro
Experimental: FIGS. 5A-5E. The effect of herbacetin on ODC activity was assessed in (a) DLD-1 and (b) HCT116 colon cancer cells. Cell lysates were incubated for 15 min with reaction buffer and different doses of herbacetin or DFMO and then incubated at 37° C. for 1 h. Herbacetin (c) and kaempferol (d) were modeled as allosteric inhibitors with the ODC crystal structure. (e) The effect of herbacetin or kaempferol on ODC activity was assessed using a human ODC recombinant protein. Each reaction was incubated at 37° C. for 1 h and ODC activity was measured as the release of CO2 from L-[1-C^14] ornithine. Data are represented as means±S.D. of triplicate values. The asterisk (*) indicates a significant difference (p<0.05) between herbacetin-treated samples compared to untreated or kaempferol-treated samples.
ODC activity was measured as the release of CO2 from L-[1-C^14] ornithine as previously described ([…]).

SMILES: O=c1c(O)c(-c2ccc(O)cc2)oc2cc(O)cc(O)c12 [kaempferol, reference compound]
- ODC activity (release of CO2 from L-[1-C^14] ornithine): little effect
